Measured values published in ChEMBL document CHEMBL1201862, “PubChem BioAssay data set” (2004).
Calls of active or inactive are those of the source. Cut-off read from the data, not from the text of the source, for most assays here: actives have a measured EC50 and inactives only a lower limit.

What was measured:
[1] = target: Luciferin 4-monooxygenase (Photinus pyralis, UniProt P08659); assay: Counter Screen for Luciferase-based Assay Positives. [Related pubchem assays: 620, 618, 411 ]
HT-1080 = assay: cytotoxicity in HT1080 fibrosarcoma cells, cell-based, fluorescence readout (AID 620); type: functional; settings: Homo sapiens

Chain of Luciferin 4-monooxygenase (P08659 whole entry): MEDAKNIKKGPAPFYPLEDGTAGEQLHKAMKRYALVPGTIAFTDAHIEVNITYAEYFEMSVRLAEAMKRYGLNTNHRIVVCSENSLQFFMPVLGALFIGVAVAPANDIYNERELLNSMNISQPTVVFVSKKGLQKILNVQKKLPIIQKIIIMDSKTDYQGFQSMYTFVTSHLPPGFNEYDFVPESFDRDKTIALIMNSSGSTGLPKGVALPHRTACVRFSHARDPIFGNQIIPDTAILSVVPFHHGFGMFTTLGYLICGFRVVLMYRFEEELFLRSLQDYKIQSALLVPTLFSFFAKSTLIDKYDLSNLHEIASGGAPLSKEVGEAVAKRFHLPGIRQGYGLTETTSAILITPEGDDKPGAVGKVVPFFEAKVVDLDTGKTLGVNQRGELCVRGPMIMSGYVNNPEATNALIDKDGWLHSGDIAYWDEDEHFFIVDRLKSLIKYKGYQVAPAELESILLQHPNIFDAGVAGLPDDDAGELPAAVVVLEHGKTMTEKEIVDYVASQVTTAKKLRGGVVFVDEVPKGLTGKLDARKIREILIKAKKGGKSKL

Row | SMILES | EC50 [1] | EC50 (HT-1080) | IC50 (cells)
1 | Cc1cc(C)c(OCC(=O)Nc2cccc(O)c2)cc1C | 3.52 µM (active) | > 50 µM (not active) | –
2 | COc1ccc(S(=O)(=O)NC(C)(C)C)cc1-c1nnc2c3ccccc3c(C)nn12 | – | – | 8.97 µM (active)
